The data set in a line: Second-order rate constant for the alkaline hydrolysis was determined. It counts as ADME.
Take `CN1C(=O)c2ccccc2C1=O`: the kHO amounted to 37.5 M⁻¹ s⁻¹.

Turning to `Cc1ccc2c(c1)C(=O)N(COC(=O)c1ccccc1)C2=O`, the kHO came out at 27.3 M⁻¹ s⁻¹.

Compound `COc1ccc(C(=O)OCN2C(=O)c3ccccc3C2=O)cc1` returned a kHO of 33.9 M⁻¹ s⁻¹.

`COCN1C(=O)c2ccccc2C1=O` showed a kHO of 35.3 M⁻¹ s⁻¹.

As to `O=C(OCN1C(=O)c2ccc([N+](=O)[O-])cc2C1=O)c1ccccc1`, the kHO came to 559 M⁻¹ s⁻¹.

The compound `O=C(OCN1C(=O)c2ccccc2C1=O)c1ccc(Cl)cc1` had a kHO of 56.7 M⁻¹ s⁻¹.

As to `O=C(OCN1C(=O)c2ccccc2C1=O)c1ccccc1`, the kHO was determined as 50.4 M⁻¹ s⁻¹.

`O=C(OCN1C(=O)c2ccccc2C1=O)c1ccc([N+](=O)[O-])cc1` yielded a kHO of 76.8 M⁻¹ s⁻¹.

In turn, `CC1(C)S[C@@H]2[C@H](NC(=O)Cc3ccccc3)C(=O)N2[C@H]1C(=O)OCN1C(=O)c2ccccc2C1=O` displayed a kHO of 65.6 M⁻¹ s⁻¹.

In turn, `O=C1c2ccccc2C(=O)N1CCl` yielded a kHO of 105.8 M⁻¹ s⁻¹.

In the case of `O=C1c2ccccc2C(=O)N1CO[N+](=O)[O-]`, the kHO was 79.7 M⁻¹ s⁻¹.
